Assay results taken from patent US11733161B2, “Method of determining concentration of subject based on fraction bound measurement” (Korea Advanced Institute of Science and Technology, priority 2019, dated 2023).
Where two headings read alike, the source gives them in different places.

Test: real-time WGM (SRSN) resonator measurement of the streptavidin-biotin interaction, Langmuir model analysis
Type: binding
Conditions: for association rate: fit of Equation 7
From the text: An interaction between streptavidin and biotin may be measured. […] Prior to experiments, the SRSN resonator may be pre-processed using biotin. When streptavidin of a DPBS flows into a fluid channel, streptavidin starts to attach biotin on a surface of the optical active resonator. Streptavidin that has closely attached biotin on the surface of the resonator may increase the length of an optical path of a resonance mode. Accordingly, a resonance movement may occur because the resonance state of the optical active resonator is changed.
A beam of a 457.9 nm wavelength argon laser 730 may be concentrated on the top of an SRSN resonator 710 through the PDMS wall of a micro microfluidic channel 720. The laser intensity of a focal plane is 20 W/cm^2 and may obtain strong PL emission including a characteristic cavity mode profile by stimulating silicon nano-clusters. The PL emission is collected through the side wall of the microfluidic channel 720 by an objective lens 750 (numerical aperture: 0.15). In this case, a transverse magnetic (TM) polarization component may be selectively captured by a polarity bond. […] The TM mode may be selectively measured as a cavity TM mode because the TM mode has a slot structure and can be firmly fixed compared to a TE mode. In this case, a beam splitter 740 may be configured between the argon laser 730 and the objective lens 750 and between the objective lens 750 and a CCD camera 760. A separate objective lens, a polarizer 770 and the spectrometer 780 may be configured for measurement.
The PL spectrum is measured after the state of a frequency movement is a saturation state.
In order to additionally research the developed detection device and to analyze the influence of the nano-slot structure on molecule dynamics, a time-excessive operation of a frequency movement caused by an interaction was measured. […] Such a time shift of the frequency movement may be understood based on the Langmuir model. This is commonly used to analyze the kinetics of a surface bonding reaction in a system in which a ligand has been fixed to a firm surface. A fraction proportional to a bio sensor signal may be defined as the number of ligands and analysis complexes based on the Langmuir model, and may be divided by a total number of ligands represent in the following equation in a connection step.
[formula] in the saturation state. In FIG. 10A, a solid line indicates a suitable curve of Equation 7 for measured data points. In this curve, values of kon^obs and fbeq(c) can be obtained. Kd, kon and koff can be derived by substituting the two values with Equation 8 and Equation 9 and solving both the equations at the same time.

Substance: Bovine Serum Albumin [BSA]
- frequency movement (1 mg/mL, flowed 35 minutes over the biotin-processed resonator, control experiment): 0.25 nm

Substance: streptavidin
- peak shift (streptavidin 144 nM, saturation state (FIG. 9B)): 1.72 nm
- association rate (streptavidin concentration 9 nM in DPBS): 12000 M⁻¹ s⁻¹
- association rate (streptavidin concentration 36 nM in DPBS): 4200 M⁻¹ s⁻¹
- association rate (streptavidin concentration 54 nM in DPBS): 3200 M⁻¹ s⁻¹
- association rate (streptavidin concentration 90 nM in DPBS): 6400 M⁻¹ s⁻¹
- connection ratio / association rate (streptavidin-biotin complex, real-time bonding, Langmuir model): 0.0003 M⁻¹ s⁻¹
- koff (streptavidin-biotin complex, saturation state (FIG. 10B)): 0.014 s⁻¹
- Kd (streptavidin-biotin complex, saturation state, Hill model fit (FIG. 10B), read-out: Kd): 380 nM
- Kd (streptavidin-biotin complex, read-out: separation constant): 380 nM
